US4426382A, “4-Amino-6,7-dimethoxy-2-piperazinylquinazoline derivatives, their preparation and use” (Sankyo Company Limited, priority 1980, dated 1984)
Counter-ions that a name gives are not always drawn.

Assays:
[1] = system: spontaneously hypertensive rats; test: antihypertensive activity: blood pressure after oral administration to conscious spontaneously hypertensive rats; assay type: in vivo; details: male spontaneously hypertensive rats
Method: The animals used in this test were 15 week old male spontaneously hypertensive rats. 3-5 rats were used to test each concentration of each compound. Each animal was treated as follows. […] A polyethylene cannula was then inserted into the abdominal aorta by the method of Weeks and Jones [J. R. Weeks and J. A. Jones, Proc. Soc. […] The other end of the cannula, leading out of the body, was fixed to the neck. One week after the operation, when the animal had recovered from post-operative invasion, this end of the cannula was connected to an apparatus to measure the blood pressure and heart beat directly without the need for any further anesthesia or restraint. The haemomanometer used was an improved type of that originated by Laffan et al. [P. J. Laffan, A. Peterson, S. W. Hitch and C.
The compound under test was suspended at the desired concentration in a 0.3% w/v aqueous solution of carboxymethylcellulose and administered orally in a volume of 2 ml/kg body weight. […] After administration of the sample, the blood pressure and heart beat of each animal were measured for 24 hours at 15 minute intervals.
For purposes of comparison, the same experiment was carried out with various concentrations of the known hypotensive agent, prazosin, in the form of its hydrochloride.
Δmax =Maximum change in blood pressure (mm/Hg) after administration of the compound under test;
Tmax =Time (in hours) after administration of the compound under test required for the blood pressure to obtain a maximum change;
T0.5 max =Time (in hours) after administration of the compound under test for the blood pressure to return to one-half of its maximum value.

[2] = background; cited from earlier work

Structure (SMILES): C=CCCC(=O)N1CCN(c2nc(N)c3cc(OC)c(OC)cc3n2)CC1 [Compound No. 6, 4-Amino-6,7-dimethoxy-2-[4-(4-pentenoyl)-1-piperazinyl]quinazoline]
- T0.5 max, time after administration for the blood pressure to return to one-half of its maximum value ([1]; dose 3 mg/kg oral): 8 h
- Tmax, time after administration required for the blood pressure to obtain a maximum change ([1]; dose 3 mg/kg oral): 30 min
- Δmax, maximum change in blood pressure after administration ([1]; dose 3 mg/kg oral): -40 mmHg
- T0.5 max, time after administration for the blood pressure to return to one-half of its maximum value ([1]; dose 30 mg/kg oral): 13 h
- Tmax, time after administration required for the blood pressure to obtain a maximum change ([1]; dose 30 mg/kg oral): 30 min
- Δmax, maximum change in blood pressure after administration ([1]; dose 30 mg/kg oral): -65 mmHg

Structure (SMILES): CCC=CCC(=O)N1CCN(c2nc(N)c3cc(OC)c(OC)cc3n2)CC1 [Compound No. 7, 4-Amino-2-[4-(3-hexenoyl)-1-piperazinyl]-6,7-dimethoxyquinazoline]
- T0.5 max, time after administration for the blood pressure to return to one-half of its maximum value ([1]; dose 3 mg/kg oral): 7 h
- Tmax, time after administration required for the blood pressure to obtain a maximum change ([1]; dose 3 mg/kg oral): 30 min
- Δmax, maximum change in blood pressure after administration ([1]; dose 3 mg/kg oral): -20 mmHg
- T0.5 max, time after administration for the blood pressure to return to one-half of its maximum value ([1]; dose 30 mg/kg oral): 15 h
- Tmax, time after administration required for the blood pressure to obtain a maximum change ([1]; dose 30 mg/kg oral): 30 min
- Δmax, maximum change in blood pressure after administration ([1]; dose 30 mg/kg oral): -25 mmHg

Structure (SMILES): CCCC=CC(=O)N1CCN(c2nc(N)c3cc(OC)c(OC)cc3n2)CC1 [Compound No. 8, 4-Amino-2-[4-(2-hexenoyl)-1-piperazinyl]-6,7-dimethoxyquinazoline]
- T0.5 max, time after administration for the blood pressure to return to one-half of its maximum value ([1]; dose 3 mg/kg oral): 4.5 h
- Tmax, time after administration required for the blood pressure to obtain a maximum change ([1]; dose 3 mg/kg oral): 30 min
- Δmax, maximum change in blood pressure after administration ([1]; dose 3 mg/kg oral): -35 mmHg
- T0.5 max, time after administration for the blood pressure to return to one-half of its maximum value ([1]; dose 30 mg/kg oral): 7 h
- Tmax, time after administration required for the blood pressure to obtain a maximum change ([1]; dose 30 mg/kg oral): 30 min
- Δmax, maximum change in blood pressure after administration ([1]; dose 30 mg/kg oral): -40 mmHg

Structure (SMILES): COc1cc2nc(N3CCN(C(=O)c4ccco4)CC3)nc(N)c2cc1OC [prazosin hydrochloride, prazosin, reference compound]
- Tmax, time after administration required for the blood pressure to obtain a maximum change ([1]; dose 3 mg/kg oral): 30 min
- Δmax, maximum change in blood pressure after administration ([1]; dose 3 mg/kg oral): -35 mmHg
- Tmax, time after administration required for the blood pressure to obtain a maximum change ([1]; dose 30 mg/kg oral): 60 min
- Δmax, maximum change in blood pressure after administration ([1]; dose 30 mg/kg oral): -50 mmHg

Structure (SMILES): COc1cc2nc(N3CCN(C(=O)c4ccco4)CC3)nc(N)c2cc1OC [prazosin]
- antihypertensive activity (in words) [2]: very useful antihypertensive activity
- disappearance of hypotensive effect (in words) [2]: the effect tends also to diappear quickly
- time to maximum hypotensive effect (in words) [2]: maximum hypotensive effect tends to be achieved very quickly
